In patent US10508104B2, “6-hydroxy-5-(phenyl/heteroarylsulfonyl)pyrimidin-4(1H)-one as APJ agonists” (Bristol-Myers Squibb Company, priority 2016, dated 2019):

Target: human APJ receptor (Homo sapiens (Human), UniProt P35414)
Assay: Intracellular cAMP accumulation assay (APJ hcAMP, HTRF)
Format: cell-based
Conditions: HEK293 cells stably expressing human APJ receptor; inhibition of forskolin-mediated cAMP production; read-out: Human APJ cAMP EC50 Potency range
Procedure, shortened: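 HEK293 cells stably expressing human APJ, 5,000 per well, incubated 30 min at rt with compound, […] and 2 μM forskolin. cAMP measured by HTRF against a cAMP standard curve as inhibition of forskolin-driven production. EC50 from variable-slope sigmoidal fit.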

Chain of human APJ receptor (P35414 whole entry): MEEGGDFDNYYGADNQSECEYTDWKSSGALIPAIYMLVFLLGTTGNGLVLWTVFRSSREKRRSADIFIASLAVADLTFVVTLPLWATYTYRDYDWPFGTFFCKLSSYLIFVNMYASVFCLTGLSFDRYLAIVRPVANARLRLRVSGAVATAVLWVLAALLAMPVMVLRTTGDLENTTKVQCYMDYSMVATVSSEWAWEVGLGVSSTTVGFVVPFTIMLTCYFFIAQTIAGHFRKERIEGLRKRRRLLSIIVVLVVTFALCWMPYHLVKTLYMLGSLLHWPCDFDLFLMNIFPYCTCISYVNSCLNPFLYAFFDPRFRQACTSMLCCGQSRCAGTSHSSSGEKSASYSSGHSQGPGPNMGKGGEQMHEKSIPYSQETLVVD

| Structure (SMILES) | EC50 [nM] |
| --- | --- |
| CCCCc1nc(=O)c(S(=O)(=O)c2ccc(-c3c[nH]nc3C)cc2)c(O)n1[C@@H](CC)c1cccc(C#N)c1 [Example 495, 3-[(1S)-1-{2-butyl-6-hydroxy-5-[4-(3-methyl-1H-pyrazol-4-yl)benzenesulfonyl]-4-oxo-1,4-dihydropyrimidin-1-yl}propyl]benzonitrile] | 0.01 to 10 |
| Cc1cnccc1-c1ccc(S(=O)(=O)c2c(O)n([C@H](c3cccc(C#N)c3)C3CC3)c(CC3CC3)nc2=O)cc1 [Example 496, 3-[(S)-cyclopropyl[2-(cyclopropylmethyl)-6-hydroxy-5-[4-(3-methylpyridin-4-yl)benzenesulfonyl]-4-oxo-1,4-dihydropyrimidin-1-yl]methyl]benzonitrile] | 0.01 to 10 |
| Cc1ncccc1-c1ccc(S(=O)(=O)c2c(O)n([C@H](c3cccc(C#N)c3)C3CC3)c(CC3CC3)nc2=O)cc1 [Example 497, 3-[(S)-cyclopropyl[2-(cyclopropylmethyl)-6-hydroxy-5-[4-(2-methylpyridin-3-yl)benzenesulfonyl]-4-oxo-1,4-dihydropyrimidin-1-yl]methyl]benzonitrile] | 0.01 to 10 |
| Cc1c(-c2ccc(S(=O)(=O)c3c(O)n([C@H](c4cccc(C#N)c4)C4CC4)c(CC4CC4)nc3=O)cc2)ccnc1F [Example 498, 3-[(S)-cyclopropyl[2-(cyclopropylmethyl)-5-[4-(2-fluoro-3-methylpyridin-4-yl)benzenesulfonyl]-6-hydroxy-4-oxo-1,4-dihydropyrimidin-1-yl]methyl]benzonitrile] | 0.01 to 10 |
| Cc1nc(F)ccc1-c1ccc(S(=O)(=O)c2c(O)n([C@H](c3cccc(C#N)c3)C3CC3)c(CC3CC3)nc2=O)cc1 [Example 499, 3-[(S)-cyclopropyl[2-(cycIopropylmethyl)-5-[4-(6-fluoro-2-methylpyridin-3-yl)benzenesulfonyl]-6-hydroxy-4-oxo-1,4-dihydropyrimidin-1-yl]methyl]benzonitrile] | 0.01 to 10 |
| N#Cc1cccc([C@H](C2CC2)n2c(CC3CC3)nc(=O)c(S(=O)(=O)c3ccc(-c4ccc(F)cc4C(N)=O)cc3)c2O)c1 [Example 500, 4′-({1-[(S)-(3-cyanophenyl)(cyclopropyl)methyl]-2-(cyclopropylmethyl)-6-hydroxy-4-oxo-1,4-dihydropyrimidin-5-yl}sulfonyl)-4-fluoro-[1,1′-biphenyl]-2-carboxamide] | 0.01 to 10 |
| CCCCc1nc(=O)c(S(=O)(=O)c2ccc(-c3ccccc3C(=O)OC)cc2)c(O)n1[C@@H](CC)c1cccc(C#N)c1 [Example 501, methyl 4′-({2-butyl-1-[(1S)-1-(3-cyanophenyl)propyl]-6-hydroxy-4-oxo-1,4-dihydropyrimidin-5-yl}sulfonyl)-[1,1′-biphenyl]-2-carboxylate] | 0.01 to 10 |
| CC[C@@H](c1cc(F)cc(C#N)c1)n1c(CC2CC2)nc(=O)c(S(=O)(=O)c2ccc(-c3ccccc3C(N)=O)cc2)c1O [Example 502, 4′-({1-[(1S)-1-(3-cyano-5-fluorophenyl)propyl]-2-(cyclopropylmethyl)-6-hydroxy-4-oxo-1,4-dihydropyrimidin-5-yl}sulfonyl)-[1,1′-biphenyl]-2-carboxamide] | 0.01 to 10 |
| CCCCc1nc(=O)c(S(=O)(=O)c2ccc(-c3ccc(F)nc3F)cc2)c(O)n1[C@@H](CC)c1cccc(C#N)c1 [Example 503, 3-[(1S)-1-{2-butyl-5-[4-(2,6-difluoropyridin-3-yl)benzenesulfonyl]-6-hydroxy-4-oxo-1,4-dihydropyrimidin-1-yl}propyl]benzonitrile] | 0.01 to 10 |
| CCCCc1nc(=O)c(S(=O)(=O)c2ccc(-c3cccn(C)c3=O)cc2)c(O)n1[C@@H](CC)c1cccc(C#N)c1 [Example 504, 3-[(1S)-1-{2-butyl-6-hydroxy-5-[4-(1-methyl-2-oxo-1,2-dihydropyridin-3-yl)benzenesulfonyl]-4-oxo-1,4-dihydropyrimidin-1-yl}propyl]benzonitrile] | 0.01 to 10 |
| CCCCc1nc(=O)c(S(=O)(=O)c2ccc(-c3cccnc3F)cc2)c(O)n1[C@@H](CC)c1cccc(C#N)c1 [Example 505, 3-[(1S)-1-{2-butyl-5-[4-(2-fluoropyridin-3-yl)benzenesulfonyl]-6-hydroxy-4-oxo-1,4-dihydropyrimidin-1-yl}propyl]benzonitrile] | 0.01 to 10 |
| CCCCc1nc(=O)c(S(=O)(=O)c2ccc(-c3ccnc(F)c3F)cc2)c(O)n1[C@@H](CC)c1cccc(C#N)c1 [Example 506, 3-[(1S)-1-{2-butyl-5-[4-(2,3-difluoropyridin-4-yl)benzenesulfonyl]-6-hydroxy-4-oxo-1,4-dihydropyrimidin-1-yl}propyl]benzonitrile] | 0.01 to 10 |
| CCCCc1nc(=O)c(S(=O)(=O)c2ccc(-c3ccccc3C(=O)NC)cc2)c(O)n1[C@@H](CC)c1cccc(C#N)c1 [Example 507, 4′-({2-butyl-1-[(1S)-1-(3-cyanophenyl)propy1]-6-hydroxy-4-oxo-1,4-dihydropyrimidin-5-yl}sulfonyl)-N-methyl-[1,1′-biphenyl]-2-carboxamide] | 0.01 to 10 |
| CCCCc1nc(=O)c(S(=O)(=O)c2ccc(-c3cnc(OC)nc3OC)cc2)c(O)n1[C@@H](CC)c1cccc(C#N)c1 [Example 508, 3-[(1S)-1-{2-butyl-5-[4-(2,4-dimethoxypyrimidin-5-yl)benzenesulfonyl]-6-hydroxy-4-oxo-1,4-dihydropyrimidin-1-yl}propyl]benzonitrile] | 0.01 to 10 |
| CCCCc1nc(=O)c(S(=O)(=O)c2ccc(-c3cccnc3C(N)=O)cc2)c(O)n1[C@@H](CC)c1cccc(C#N)c1 [Example 509, 3-[4-({2-butyl-1-[(1S)-1-(3-cyanophenyl)propyl]-6-hydroxy-4-oxo-1,4-dihydropyrimidin-5-yl}sulfonyl)phenyl] pyridine-2-carboxamide] | 0.01 to 10 |
| CCCCc1nc(=O)c(S(=O)(=O)c2ccc(-c3ccnc4[nH]ccc34)cc2)c(O)n1[C@@H](CC)c1cccc(C#N)c1 [Example 510, 3-[(1S)-1-[2-buty1-6-hydroxy-4-oxo-5-(4-{1H-pyrrolo[2,3-b]pyridin-4-yl}benzenesulfonyl)-1,4-dihydropyrimidin-1-yl]propyl]benzonitrile] | 0.01 to 10 |
| CCCCc1nc(=O)c(S(=O)(=O)c2ccc(-c3ccccc3F)cc2)c(O)n1[C@@H](CC)c1cccc(C#N)c1 [Example 511, 3-[(1S)-1-[2-butyl-5-({2′-fluoro-[1,1′-biphenyl]-4-yl}sulfonyl)-6-hydroxy-4-oxo-1,4-dihydropyrimidin-1-yl]propyl]benzonitrile] | 0.01 to 10 |
| CCCCc1nc(=O)c(S(=O)(=O)c2ccc(-c3ccncc3F)cc2)c(O)n1[C@@H](CC)c1cccc(C#N)c1 [Example 512, 3-[(1S)-1-{2-butyl-5-[4-(3-fluoropyridin-4-yI)benzenesulfonyl]-6-hydroxy-4-oxo-1,4-dihydropyrimidin-1-yl}propyl]benzonitrile] | 0.01 to 10 |

The next lines start with the values.

| EC50 [nM] | Structure (SMILES) |
| --- | --- |
| 0.01 to 10 | CCCCc1nc(=O)c(S(=O)(=O)c2ccc(-c3ccncc3C)cc2)c(O)n1[C@H](c1cccc(C#N)c1)C1CC1 [Example 487, 3-[(S)-{2-butyl-6-hydroxy-5-[4-(3-methylpyridin-4-yl)benzenesulfonyl]-4-oxo-1,4-dihydropyrimidin-1-yl}(cyclopropyl)methyl] benzonitrile] |
| 0.01 to 10 | CC[C@@H](c1cc(F)cc(C#N)c1)n1c(CC2CC2)nc(=O)c(S(=O)(=O)c2ccc(-c3ccnc(F)c3C)cc2)c1O [Example 488, 3-[(1S)-1-[2-(cyclopropylmethyl)-5-[4-(2-fluoro-3-methylpyridin-4-yl)benzenesulfonyl]-6-hydroxy-4-oxo-1,4-dihydropyrimidin-1-yl]propyl]-5-fluorobenzonitrile] |
| 0.01 to 10 | CCCCc1nc(=O)c(S(=O)(=O)c2ccc(-c3ccccc3C(=O)N3CCOCC3)cc2)c(O)n1[C@@H](CC)c1cccc(C#N)c1 [Example 489, 3-[(1S)-1-(2-butyl-6-hydroxy-5-{[2′-(morpholine-4-carbonyl)-[1,1′-biphenyl]-4-yl)sulfonyl}-4-oxo-1,4-dihydropyrimidin-1-yl)propyl]benzonitrile] |
| 0.01 to 10 | Cn1cccc(-c2ccc(S(=O)(=O)c3c(O)n([C@H](c4cccc(C#N)c4)C4CC4)c(CC4CC4)nc3=O)cc2)c1=O [Example 490, 3-[(S)-cyclopropyl[2-(cyclopropylmethyl)-6-hydroxy-5-[4-(1-methyl-2-oxo-1,2-dihydropyridin-3-yl)benzenesulfonyl]-4-oxo-1,4-dihydropyrimidin-1-yl]methyl]benzonitrile] |
| 0.01 to 10 | CCCCc1nc(=O)c(S(=O)(=O)c2ccc(-c3ccccc3C)cc2)c(O)n1[C@@H](CC)c1cccc(C#N)c1 [Example 491, 3-[(1S)-1-[2-butyl-6-hydroxy-5-({2′-methyl-[1,1′-biphenyl]-4-yl}sulfonyl)-4-oxo-1,4-dihydropyrimidin-1-yl]propyl]benzonitrile] |
| 0.01 to 10 | CCCCc1nc(=O)c(S(=O)(=O)c2ccc(-c3cccc(C#N)c3C)cc2)c(O)n1[C@@H](CC)c1cccc(C#N)c1 [Example 492, 4′-({2-butyl-1-[(1S)-1-(3-cyanophenyl)propyl]-6-hydroxy-4-oxo-1,4-dihydropyrimidin-5-yl}sulfonyl)-2-methyl-[1,1′-biphenyl]-3-carbonitrile] |
| 0.01 to 10 | CCCCc1nc(=O)c(S(=O)(=O)c2ccc(-c3cc(C#N)ccc3C)cc2)c(O)n1[C@@H](CC)c1cccc(C#N)c1 [Example 493, 4′-({2-butyl-1-[(1S)-1-(3-cyanophenyl)propyl]-6-hydroxy-4-oxo-1,4-dihydropyrimidin-5-yl}sulfonyl)-6-methyl-[1,1′-biphenyl]-3-carbonitrile] |
| 0.01 to 10 | CCCCc1nc(=O)c(S(=O)(=O)c2ccc(-c3ccc(F)cc3C(N)=O)cc2)c(O)n1[C@@H](CC)c1cccc(C#N)c1 [Example 494, 4′-({2-butyl-1-[(1S)-1-(3-cyanophenyl)propyl]-6-hydroxy-4-oxo-1,4-dihydropyrimidin-5-yl}sulfonyl)-4-fluoro-[1,1′-biphenyl]-2-carboxamide] |
